Assay results published in ChEMBL document CHEMBL1201862, “PubChem BioAssay data set” (2004).
Calls of active or inactive are those of the source.

Experiments:
Albumin = Albumin (Bos taurus, UniProt P02769); experiment: Counterscreen for inhibitors of T-cell receptor (TCR)-CD3 interaction: Fluorescence-based biochemical high throughput dose response assay to identify inhibitors of T-cell receptor (TCR)-CD3 interaction using a TAMRA-labeled BSA probe.; format: functional
Caspase-7 = Caspase-7 (Homo sapiens, UniProt P55210); experiment: human caspase-7 inhibitors, dose response, selectivity assay for caspase-6 inhibitor project, biochemical, DEVD-R110 fluorescence, cherry-pick (AID 743295)
Caspase-6 = target: T1, Caspase-6 (Homo sapiens, UniProt P55212); experiment: human caspase-6 inhibitors, dose response, biochemical, VEID-R110 fluorescence, cherry-pick (AID 720632)
T1 sequence (P55212 whole entry): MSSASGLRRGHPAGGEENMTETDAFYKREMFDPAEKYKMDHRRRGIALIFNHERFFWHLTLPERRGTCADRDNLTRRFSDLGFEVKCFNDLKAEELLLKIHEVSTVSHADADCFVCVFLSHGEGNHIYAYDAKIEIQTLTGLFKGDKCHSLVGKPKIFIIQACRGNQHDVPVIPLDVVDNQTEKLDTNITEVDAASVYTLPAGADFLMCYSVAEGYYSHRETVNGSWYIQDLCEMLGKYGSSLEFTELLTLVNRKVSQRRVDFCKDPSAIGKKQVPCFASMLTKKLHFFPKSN

[1] = target: T2, Trace amine-associated receptor 1 (Homo sapiens, UniProt Q96RJ0); experiment: Counterscreen for agonists of the human trace amine associated receptor 1 (hTAAR1): Fluorescence-based cell-based high throughput dose response assay to identify hTAAR1 agonist that also desensitize TAAR1 receptor response.; format: functional
cells [2] = format: functional, cell-based
cells [3] = format: functional, cell-based; remark: listed apart in the source
[4] = target: T2, Trace amine-associated receptor 1; experiment: Fluorescence-based cell-based high throughput dose response assay to identify agonists of the human trace amine associated receptor 1 (TAAR1).; format: functional
Major prion protein = Major prion protein (Homo sapiens, UniProt P04156); format: functional, cell-based
cells [5] = experiment: cells
[6] = target: Photoreceptor-specific nuclear receptor (Homo sapiens, UniProt Q9Y5X4); format: functional, cell-based;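 also: CHO-S cells with Gal4-NCOR and VP16-NR2E3 two-hybrid luciferase reporter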
[7] = HEK293 cell cytotoxicity, dose response, cytotoxicity control, plate reader, cherry-picked samples (AID 743446); format: functional, cell-based
[8] = MC4R antagonists, dose response, counter-screen for LGR2 antagonist project, cell-based, plate reader, cherry pick (AID 743444); format: functional;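 also: transfected HEK 293 cells stimulated with alpha-MSH peptide; potency of inhibitors of the alpha-MSH evoked signal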
A549 = experiment: A549 cell toxicity, dose response, cytotoxicity control, plate reader, cherry-pick samples (AID 687028); format: functional, cell-based; settings: Homo sapiens
[9] = A549 cell cytotoxicity, dose response, cytotoxicity control, plate reader, cherry-pick, antagonist series (AID 743412); format: functional, cell-based
[10] = HepG2 cell cytotoxicity, dose response, cytotoxicity control, plate reader, cherry-pick, antagonist series (AID 743416); format: functional, cell-based
[11] = LGR2 antagonists, dose response, cell-based, HEK293, CRE-luciferase reporter, cherry pick, set 2 (AID 743343); format: functional;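 also: transfected cells were stimulated with diluted bursicon conditioned medium after compound addition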
[12] = target: T3, Histone-lysine N-methyltransferase NSD2 (Homo sapiens, UniProt O96028); format: biochemical
T3 sequence (O96028 whole entry): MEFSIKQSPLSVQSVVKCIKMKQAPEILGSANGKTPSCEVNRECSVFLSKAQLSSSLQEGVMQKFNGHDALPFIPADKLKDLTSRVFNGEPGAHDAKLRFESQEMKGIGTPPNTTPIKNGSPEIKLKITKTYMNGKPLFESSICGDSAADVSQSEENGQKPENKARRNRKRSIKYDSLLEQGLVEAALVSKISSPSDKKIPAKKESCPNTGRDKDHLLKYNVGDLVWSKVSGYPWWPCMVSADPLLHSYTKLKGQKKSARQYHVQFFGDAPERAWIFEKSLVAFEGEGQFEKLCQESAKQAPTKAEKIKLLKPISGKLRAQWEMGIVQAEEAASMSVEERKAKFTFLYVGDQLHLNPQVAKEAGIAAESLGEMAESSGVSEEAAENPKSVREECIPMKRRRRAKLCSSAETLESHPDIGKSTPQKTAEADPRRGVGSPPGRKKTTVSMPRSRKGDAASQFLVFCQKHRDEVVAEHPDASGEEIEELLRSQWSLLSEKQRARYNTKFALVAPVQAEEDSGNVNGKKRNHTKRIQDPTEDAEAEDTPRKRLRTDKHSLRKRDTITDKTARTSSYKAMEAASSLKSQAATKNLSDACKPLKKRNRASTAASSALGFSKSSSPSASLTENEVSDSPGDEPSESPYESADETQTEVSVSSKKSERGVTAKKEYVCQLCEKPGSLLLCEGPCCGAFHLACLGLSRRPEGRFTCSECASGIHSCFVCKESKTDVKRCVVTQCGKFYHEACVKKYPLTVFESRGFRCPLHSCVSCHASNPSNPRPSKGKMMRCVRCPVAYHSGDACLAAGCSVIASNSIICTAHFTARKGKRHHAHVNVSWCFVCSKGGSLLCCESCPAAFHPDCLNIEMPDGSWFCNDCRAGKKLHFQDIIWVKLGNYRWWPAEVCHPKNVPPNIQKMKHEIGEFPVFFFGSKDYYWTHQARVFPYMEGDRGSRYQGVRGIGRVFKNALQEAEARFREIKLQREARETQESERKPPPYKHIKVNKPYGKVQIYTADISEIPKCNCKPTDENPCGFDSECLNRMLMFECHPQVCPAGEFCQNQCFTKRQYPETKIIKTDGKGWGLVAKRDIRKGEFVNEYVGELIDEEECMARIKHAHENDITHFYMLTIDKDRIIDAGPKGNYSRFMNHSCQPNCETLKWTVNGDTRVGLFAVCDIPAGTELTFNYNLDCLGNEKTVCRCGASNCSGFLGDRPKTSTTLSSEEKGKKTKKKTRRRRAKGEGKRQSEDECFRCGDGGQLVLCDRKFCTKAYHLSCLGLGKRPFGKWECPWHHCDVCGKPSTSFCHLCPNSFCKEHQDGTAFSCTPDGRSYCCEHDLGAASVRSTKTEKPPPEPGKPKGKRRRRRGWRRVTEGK

[13] = non-specific cell cytotoxicity, dose response, cytotoxicity control for PAX8 inhibitor project, plate reader, dry powder samples (AID 743021); format: functional, cell-based
[14] = target: T4, Polyadenylate-binding protein 1 (Homo sapiens, UniProt P11940); experiment: PABP1 MLLE–PAM2 binding inhibitor potency, dose response, biochemical, fluorescence polarization, FITC-PAM2 peptide (AID 602259); format: functional; settings: read-out: IC50_Mean
[15] = target: Tyrosyl-DNA phosphodiesterase 2 (Homo sapiens, UniProt O95551); experiment: human TDP2 enzyme inhibitors, dose response, biochemical, epi absorbance, IC50 (AID 743297)
Paired box protein Pax-8 = Paired box protein Pax-8 (Homo sapiens, UniProt Q06710); experiment: inhibitors of PAX8-driven TPO luciferase reporter, dose response, RMG-I cells, cherry-pick (AID 687027); format: functional, cell-based;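 also: luciferase reporter driven by Pax8 target thyroperoxidase promoter measured by SteadyGlo luminescence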
Hexokinase HKDC1 = target: T5, Hexokinase HKDC1 (Homo sapiens, UniProt Q2TB90); experiment: HKDC1 hexokinase inhibitors, dose response, biochemical, W721R variant (AID 504729); format: functional
T5 sequence (Q2TB90 whole entry): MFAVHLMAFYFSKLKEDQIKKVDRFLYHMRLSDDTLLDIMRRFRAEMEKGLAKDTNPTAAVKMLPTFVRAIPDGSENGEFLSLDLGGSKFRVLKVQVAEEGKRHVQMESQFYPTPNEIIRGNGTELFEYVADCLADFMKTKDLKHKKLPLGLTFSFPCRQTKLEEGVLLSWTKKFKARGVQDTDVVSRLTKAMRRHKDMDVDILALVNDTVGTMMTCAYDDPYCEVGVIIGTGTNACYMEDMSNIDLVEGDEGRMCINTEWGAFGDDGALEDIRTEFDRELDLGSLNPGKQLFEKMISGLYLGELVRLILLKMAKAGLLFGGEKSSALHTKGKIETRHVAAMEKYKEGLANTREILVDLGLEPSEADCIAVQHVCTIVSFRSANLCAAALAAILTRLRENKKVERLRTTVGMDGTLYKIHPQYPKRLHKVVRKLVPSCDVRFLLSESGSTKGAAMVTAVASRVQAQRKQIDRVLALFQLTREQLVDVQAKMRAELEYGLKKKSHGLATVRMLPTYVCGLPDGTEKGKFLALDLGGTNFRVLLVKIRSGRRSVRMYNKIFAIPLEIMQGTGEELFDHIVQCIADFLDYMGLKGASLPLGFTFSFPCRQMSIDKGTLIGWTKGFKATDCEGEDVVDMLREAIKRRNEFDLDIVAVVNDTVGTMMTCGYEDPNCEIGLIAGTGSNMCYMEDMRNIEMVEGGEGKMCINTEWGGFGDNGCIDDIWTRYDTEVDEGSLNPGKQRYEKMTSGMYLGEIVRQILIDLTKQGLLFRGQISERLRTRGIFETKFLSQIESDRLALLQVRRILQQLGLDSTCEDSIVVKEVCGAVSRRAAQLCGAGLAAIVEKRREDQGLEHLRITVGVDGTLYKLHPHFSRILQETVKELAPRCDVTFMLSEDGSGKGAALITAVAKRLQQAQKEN

[16] = target: T4, Polyadenylate-binding protein 1; experiment: PABP1 MLLE–PAM2 interaction inhibitors, dose response, miRNA deadenylation inhibitor project, biochemical, fluorescence polarization, Cy5-PAM2 peptide, secondary (AID 602260); format: functional; settings: read-out: IC50_Mean
Galanin receptor type 3 = Galanin receptor type 3 (Homo sapiens, UniProt O60755); experiment: Fluorescence-based cell-based primary high throughput dose response assay to identify antagonists of the Galanin Receptor 3 (GalR3).; format: functional
cells [17] = format: functional, cell-based; settings: HEK-CNG
[18] = lymphoblastoid cell cytotoxicity, dose response, cytotoxicity control, plate reader, dry powder, set 2 (AID 624367); format: functional
[19] = cytotoxicity in OVCAR8 ovarian cancer cells, dose response, PAX8 project, cell-based, plate reader, dry powder samples (AID 743197); format: functional; settings: OVCAR-8
[20] = NIH:OVCAR-3 ovarian cancer cell cytotoxicity, dose response, PAX8 inhibitor project, plate reader, dry powder samples (AID 743044); format: functional, cell-based
[21] = CEM21 lymphoblast cell cytotoxicity, dose response, cytotoxicity control for viral fusion inhibitor project, CellTiter-Glo luminescence, cherry-picked (AID 652042); format: functional, cell-based;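 also: potency for signal decrease meaning cytotoxicity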
[22] = inhibitors of clade B AD8 Env fusion, dose response, cell-based, cherry-pick (AID 652062); format: functional;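 also: luciferase signal from cell-cell fusion driven by HIV-1 clade B AD8 Env; potency is for inhibitors of fusion seen as a drop in luminescence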
[23] = inhibitors of HIV Env-driven cell fusion, dose response, cherry-pick (AID 652057); format: functional, cell-based
Protein Wnt-3a = Protein Wnt-3a (Mus musculus, UniProt P27467); experiment: SAR analysis of small molecule antagonists of Gli-SUFU in a Wnt3a luminescent reporter assay.; format: functional

For `O=c1c(CO)cc(CO)cc(CO)c1O`, the IC50 (Albumin) was > 94 µM (inactive), the AC50 (Caspase-7) was > 70 µM (inactive) and the AC50 (Caspase-6) was 2.22 µM (active).

For `COc1cc(C)c(NC(=O)C(S)=NCCc2ccccc2)cc1C`, the IC50 [1] was 2.38 µM (active), the EC50 (cells [2]) was > 29.9 µM (inactive) and the IC50 (cells [3]) was > 29.9 µM (inactive). For the same compound, the EC50 [4] was 0.766 µM (active).

With `CCCc1nc(SCC(=O)NNC(=O)c2ccc(OC)cc2)c2ccccc2n1` the IC50 (Major prion protein) was 1.52 µM (active) and the IC50 (cells [5]) was > 138 µM (inactive).

For `Cc1cnc(NC(=O)C2CC(=O)N(c3cccc(Cl)c3)C2)s1` (centres undefined), the IC50 [6] was 0.0757 µM (active), the AC50 [7] was > 52 µM (inactive) and the AC50 [8] was 5.08 µM (active). The AC50 (A549) was 14.8 µM (active), the AC50 [9] was 4.65 µM (active) and the AC50 [10] was 0.763 µM (active). The AC50 [11] was 4.8 µM (active).

In the case of `NC1=C(Br)C(=O)c2ncccc2C1=O`, the AC50 [12] is reported as 0.164 µM (active), the IC50 [6] is reported as 2.48 µM (active) and the AC50 [13] is reported as 10.1 µM (active). The IC50 [14] was > 66 µM (inactive), the IC50 [15] was 2.66 µM (active) and the AC50 (Paired box protein Pax-8) was 1.22 µM (active). The IC50 (Hexokinase HKDC1) was 8.91 µM (active) and the IC50 [16] was > 66 µM (inactive).

With `CCCCCC(O)C=CC1C(O)CC(O)C1CC=CCCCC(=O)O` (centres undefined) the IC50 (Galanin receptor type 3) was > 0.123 µM (active) and the EC50 (cells [17]) was > 29.9 µM (inactive).

With `O=C(Nc1ccc(C(F)(F)F)cc1)Nc1ccc2c(c1)[C@H]1C[C@@H](CC(=O)N3CCc4ccccc4C3)O[C@@H](CO)[C@H]1O2` the AbsAC35 [18] was 44.28 µM, the AC50 [19] was > 70 µM (inactive) and the AC50 (Paired box protein Pax-8) was 10.7 µM (active). The AC50 [20] was 63.1 µM (active).

In the case of `COc1ccc2c3c([nH]c2c1)[C@H](CO)N(C(=O)Nc1cccc(F)c1)CC31CN(S(=O)(=O)c2cccc(C)c2)C1`, the AC50 [21] is reported as 27.5 µM (active), the AC50 [22] is reported as 38.1 µM (active) and the AC50 [23] is reported as 27.7 µM (active).

For `O=C(Nc1cc(N2CCCC2)ncn1)c1ccccc1`, the IC50 (Protein Wnt-3a) was > 21.8 µM (inactive).
